From the supplement of paper PMC10307832

Legend:
Assay in all cases: relative viability (nuclei count vs DMSO), 5 days (fraction); higher = more cells survive
[1] = compound: CC(C)CCN1c2nc(Nc3cc(F)c(O)c(F)c3)ncc2N(C)C(=O)C1C [BI-D1870] + Cc1cc(Nc2cc(N3CCN(C)CC3)nc(Sc3ccc(NC(=O)C4CC4)cc3)n2)n[nH]1 [Tozasertib] (partner 0.1 µM)
Summary of the method: (§1)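 Relative viability equals treated-well nuclei counts divided by vehicle-well nuclei counts. Counts came from 4× images of lung cancer cell lines grown in 1536-well plates for 5 days after pin-tool dosing on the day after seeding. Dosing used one drug alone or a fixed anchor-drug dose plus five library-drug doses (not always all listed) in √10 steps, and values are medians of duplicate plates.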

[2] = compound: O=c1ncccn1[C@@H]1O[C@H](CO)[C@@H](O)[C@H]1O [Zebularine] + CC(C)C[C@H](NC(=O)[C@H](Cc1ccccc1)NC(=O)c1cnccn1)B(O)O [Bortezomib] (partner 0.002 µM)
Summary of the method: as §1

[3] = compound: O=c1ncccn1[C@@H]1O[C@H](CO)[C@@H](O)[C@H]1O [Zebularine] + COc1cc2c(Oc3ccc(NC(=O)C4(C(=O)Nc5ccc(F)cc5)CC4)cc3F)ccnc2cc1OCCCN1CCOCC1 [Foretinib] (partner 0.25 µM)
Summary of the method: as §1

[4] = compound: O=c1ncccn1[C@@H]1O[C@H](CO)[C@@H](O)[C@H]1O [Zebularine] + C[C@]1(O)C[C@@H](c2nc(-c3ccc4ccc(-c5ccccc5)nc4c3)c3c(N)nccn32)C1 [Linsitinib] (partner 1 µM)
Summary of the method: as §1

Cell Line | relative viability ([1]; first compound 0.04 µM) | relative viability ([1]; first compound 0.1265 µM) | relative viability ([1]; first compound 0.4 µM) | relative viability ([1]; first compound 1.265 µM) | relative viability ([1]; first compound 4 µM) | relative viability ([2]; first compound 1 µM) | relative viability ([2]; first compound 3.162 µM) | relative viability ([2]; first compound 10 µM) | relative viability ([2]; first compound 31.62 µM) | relative viability ([2]; first compound 100 µM) | relative viability ([3]; first compound 1 µM) | relative viability ([3]; first compound 3.162 µM) | relative viability ([3]; first compound 10 µM) | relative viability ([3]; first compound 31.62 µM) | relative viability ([3]; first compound 100 µM) | relative viability ([4]; first compound 1 µM) | relative viability ([4]; first compound 3.162 µM) | relative viability ([4]; first compound 10 µM) | relative viability ([4]; first compound 31.62 µM) | relative viability ([4]; first compound 100 µM)
NCI-H2405 | 0.837 | 0.697 | 0.728 | 0.846 | 0.421 | 1.03 | 0.801 | 0.778 | 0.969 | 0.565 | 1.04 | 1.05 | 1.07 | 0.986 | 0.664 | 0.891 | 0.918 | 0.873 | 0.77 | 0.643
NCI-H3122 | 0.456 | 0.471 | 0.401 | 0.415 | 0.204 | 1.04 | 0.991 | 1 | 1.05 | 1.08 | 1.02 | 0.939 | – | 1.02 | 0.969 | 1.13 | 1.09 | 0.848 | 1.06 | 1.04
PC-3 [JPC-3] | 0.913 | 0.911 | 0.866 | 0.902 | 0.8 | 0.912 | 0.772 | 0.464 | 0.729 | 0.591 | 1.09 | 1.07 | 0.67 | 0.829 | 0.444 | 1.05 | 0.956 | 0.843 | 0.856 | 0.492
PC-14 | 0.62 | 0.561 | 0.55 | 0.659 | 0.367 | 1.05 | 0.743 | 0.147 | 0.115 | 0.0976 | 1.03 | 0.878 | 0.48 | 0.191 | 0.158 | 1.07 | 0.996 | 0.281 | 0.143 | 0.179
RERF-LC-KJ | 0.467 | 0.398 | 0.418 | 0.338 | 0.239 | 1.11 | 0.996 | 0.92 | 1.36 | 1.25 | 1 | 0.879 | – | 0.895 | 0.871 | 0.99 | 0.916 | – | 1.01 | 1.03
SK-LU-1 | 0.365 | 0.276 | 0.262 | 0.339 | 0.204 | 1.3 | 0.913 | 0.576 | 0.737 | 0.502 | 0.884 | 0.8 | 0.47 | 0.651 | 0.444 | 1.21 | 0.936 | 0.588 | 0.611 | 0.564
SW 1573 | 0.175 | 0.16 | 0.159 | 0.176 | 0.175 | 1.13 | 0.896 | 0.78 | 1.07 | 0.584 | 0.871 | 0.767 | 0.802 | 0.999 | 0.885 | 0.762 | 0.851 | 0.533 | 0.779 | 0.406
UMC-11 | 0.197 | 0.205 | 0.195 | 0.191 | 0.188 | 0.728 | 0.844 | 0.45 | 0.538 | 0.297 | 1 | 1.06 | 0.626 | 0.635 | 0.357 | 1.21 | 1.02 | 0.691 | 0.574 | 0.418
